Assay results taken from patent publication US11666586B2, “Compositions and methods for treating acne vulgaris” (Dermala, Inc., priority 2016, dated 2023).
Converted amounts (≈) assume the structure as drawn. Read-outs that look alike come from different tables or passages of the source.

Tests used:
[1] = Testing of combination products in human subjects with acne; details: spot treatment
From the text: The Formulation 1 was applied using Acne Treatment Pads one or two times per day.

P. acnes (ATCC 6919) = assay: Minimum Inhibitory Concentration (MIC) determination, microbroth dilution; format: cell-based, Propionibacterium acnes; details: API alone, 48 h anaerobic, ≥90% reduction in growth (OD600); for MIC: Cutibacterium acnes, ATCC6919, read-out: individual MIC
Procedure: P. acnes (ATCC 6919) was cultured on Brucella plates supplemented with 0.1 g/L hemin, 0.01 g/L vitamin K, and 5% (v/v) defibrinated sheep's blood at 37° C. under anaerobic conditions using a Gas-Pak (BD). For each assay, an inoculum of P. acnes was prepared by suspending a colony of P. acnes in 5 mL Reinforced Clostridium medium (RCM) and growing at 37° C. and 250 RPM under anaerobic conditions for 30 hours. […] Individual MIC values were determined for each drug according to the microbroth dilution method. […] Media without P. acnes and medium with P. acnes only were used for negative and positive controls, respectively, and contained the highest concentration of solvent used in each drug analysis. Plates were incubated under anaerobic conditions using a Gas-Pak (BD) for 48 hours at 37° C. Following incubation, each well was resuspended by pipetting and the optical density at 600 nm (OD600) was determined on a plate reader.

[2] = test system: S. epidermidis (ATCC 12228); assay: Fermentation of prebiotics by S. epidermidis; format: cell-based, Staphylococcus epidermidis; details: 2% prebiotic, six days anaerobic, compared to PBS control
Procedure: Preparation of Prebiotics: Glycerol, sucrose, β-lactose, and D-(+)-maltose were purchased from Sigma-Aldrich. Stock solutions of each prebiotic (4% w/v) were prepared in water and filtered through a 0.22 μm filter for sterilization.
Preparation of S. epidermidis conditioned media: S. epidermidis (ATCC 12228) was cultured on trypic soy broth (TSB) agar plates at 37° C. For each assay, an inoculum of S. epidermidis was prepared by suspending one colony of S. epidermidis from a TSB agar plate into 7 ml of TSB broth and growing at 37° C., 215 RPM for 16 hours. The overnight culture was subcultured by adding 100 μl of overnight culture to 10 ml of fresh TSB. Once mid-log phase was reached, the cells were pelleted by centrifugation, washed with PBS and resuspended in fresh PBS. In 15 ml culture tubes, 4.9 ml of Rich Broth (20 g/L yeast extract, 6 g/L TSB) was combined with 40 μl 0.5% phenol red indicator, 5 ml of 4% prebiotic (glycerol, sucrose, β-lactose, or D-(+)-maltose) or PBS as a control, and S. epidermidis (10^5 CFU/ml) and placed in an anaerobic Gas-Pak (BD). The cultures were incubated at 37° C., 215 RPM for 6 days. Following fermentation, the cells were pelleted and the supernatants were filtered through a 0.22 μm filter for sterilization.
No change in color occurred in PBS control (a).

P. acnes 6919 = assay: Time-kill assay; format: cell-based, Propionibacterium acnes; details: DRM1 30 mM or salicylic acid […] mM alone (2× MIC); combination […] + […]; RCM broth with 12% propylene glycol
[3] = test system: P. acnes strains RMA#20660 and RMA#20661; assay: MIC against multi-resistant P. acnes strains; format: cell-based, Propionibacterium acnes
Procedure: Individual MIC values were determined for each drug according to the microbroth dilution method. Briefly, 2-fold serial dilutions of each drug (50 μl) were added to wells in a 96-well plate followed by 50 μl of the prepared P. acnes inoculum as described in Example 1. Media without P. acnes and medium with P. acnes only were used for negative and positive controls, respectively, and contained the highest concentration of solvent used in each drug analysis. Plates were incubated under anaerobic conditions using a Gas-Pak (BD) for 48 hours at 37° C. Following incubation, each well was resuspended by pipetting and the optical density at 600 nm (OD600) was determined on a plate reader.

biofilm-forming strains = test system: biofilm-forming strains
From the text: Biofilm formation is an important factor in P. acnes pathogenicity and biofilm is detected in approximately half of hair follicles of acne patients.

P. acnes = details: serial passage, 10 cycles of 72 hours, method written in future tense
From the text: Resistance development may be measured by two methods: single step for the determination of spontaneous frequency of resistance development and serial passage for the determination of progressive resistance development.

| Compound | MIC (P. acnes (ATCC 6919); P. acnes 6919) [µg/mL] | acidification of media (phenol red colour) by S. epidermidis fermentation [2] | MIC (P. acnes (ATCC 6919); P. acnes ATCC 6919) [mM] | further results |
| --- | --- | --- | --- | --- |
| O=C(OOC(=O)c1ccccc1)c1ccccc1 [BPO, benzoyl peroxide, reference compound] | 125 |  |  | hyperpigmentation (dark spot side effect) [1]: dark spot side effect observed; individual MIC (P. acnes (ATCC 6919); P. acnes 6919): 125 µg/mL |
| OC[C@H]1O[C@@H](O[C@H]2[C@H](O)[C@@H](O)[C@H](O)O[C@@H]2CO)[C@H](O)[C@@H](O)[C@H]1O [β-lactose] |  | change of color from red to yellow |  |  |
| OC[C@H]1O[C@@](CO)(O[C@H]2O[C@H](CO)[C@@H](O)[C@H](O)[C@H]2O)[C@@H](O)[C@@H]1O [sucrose] |  | change of color from red to yellow |  |  |
| O=C(O)CCCCCCCC(=O)O [Azelaic acid, azelaic acid, reference compound] |  |  | 7.5 |  |
| O=C(O)c1ccccn1 [Picolinic acid, picolinic acid] |  |  | 1.88 |  |
| OC[C@H]1O[C@H](O[C@H]2[C@H](O)[C@@H](O)[C@H](O)O[C@@H]2CO)[C@H](O)[C@@H](O)[C@@H]1O [D-(+)-maltose] |  | change of color from red to yellow |  |  |
| O=C(O)c1ccccc1O [Salicylic Acid, salicylic acid, reference compound] |  |  | 7.5 | growth on plate after 15 minutes (P. acnes 6919): growth was evident |
| CCC[C@@H]1C[C@@H](C(=O)N[C@@H]([C@H]2O[C@H](SC)[C@H](O)[C@@H](O)[C@H]2O)[C@H](C)Cl)N(C)C1 [Clindamycin, clindamycin, reference compound] | 0.063 |  |  |  |
| OCC(O)CO [glycerol] |  | change of color from red to yellow |  |  |
| O=C(O)CCC(=O)O [DRM1, succinic acid] | 1770 |  | 15 | MIC ([3]; Cutibacterium acnes, each of RMA#20660 and RMA#20661 (resistant to erythromycin, clindamycin, minocycline, doxycycline), ≥90% decrease in growth, OD600): 15 mM (≈ 1770 µg/mL); bactericidal activity against antibiotic-resistant P. acnes strains ([3]; RMA#20660 and RMA#20661): bactericidal; growth on plate after 15 minutes (P. acnes 6919): growth was evident; individual MIC (P. acnes (ATCC 6919); P. acnes 6919): 1771 µg/mL; individual MIC (P. acnes (ATCC 6919); P. acnes ATCC 6919): 15 mM; concentration preventing biofilm formation (biofilm-forming strains): ≥ 7.5 mM; spontaneous or progressive resistance development (P. acnes): did not develop spontaneous or progressive resistance |
